Results on 23 compounds are retold here after patent publication US11261201B2 (priority 2018, dated 2022).

One experiment has as its system H37RvMA. The experiment in a line: Tuberculosis Alamar Blue/Resazurin assay (MIC). It counts as cell-based. As to conditions: Mycobacterium tuberculosis, H37RV, read-out: WT H37Rv MTB Activity. For orientation: Resazurin is reduced to fluorescent resorufin, in cell work by metabolically active cells.
Another experiment relates to E. coli. The experiment in a line: Gram negative MIC protocol (OD600, LB, 24 h). The following applies: Escherichia coli.
Another experiment deals with A. baumannii. The experiment in a line: Gram negative MIC protocol (OD600, LB, 24 h). The following applies: Acinetobacter baumannii.
Where [1] appears, read: read-out: MIC E. coli delta-TolC LB Media, E. coli delta-TolC, LB media, OD600.
The mark [2] stands for this setting: read-out: MIC WT E. coli LB Media, WT E. coli, LB media, OD600.
Where [3] appears, read: read-out: MIC A. baumannii LB Media, A. baumannii, LB media, 24 h, OD600.
The mark [4] stands for this setting: read-out: MIC A. baumannii LB Media.

Each structure is given as a SMILES string. In brackets after ≈: the same amount, converted by molar mass. Where a name gives a salt, the structure may show the parent alone. Read-outs that look alike come from different tables or passages of the source.

Experimental for A. baumannii: (§1) Overnight bacterial cultures were grown in LB with no added antibiotics at 37° C. with shaking. A 1:1000 dilution of these cultures into LB was exposed to concentration gradients of compounds in 96-well plates (100 μL per well assay volume). Resulting plates were incubated at 37° C. for 24 h without shaking, and OD600 was measured at the end of the incubation. MICs were determined as the lowest concentrations at which OD600 remained at baseline.
Experimental for E. coli: as §1

With `CCC(CC1CCCCC1)NCc1ccccc1` (centres unmarked) [B164, N-benzyl-1-cyclohexylbutan-2-amine], the MIC with H37RvMA (WT H37Rv MTB) was > 150 µM; with E. coli (setting [1]), 60 µM (≈ 14.7 µg/mL); with E. coli (setting [2]), > 300 µM; in the experiment on A. baumannii (setting [3]), > 150 µM.

With `CCCC(CC1CCCCC1)NCc1ccccc1` (centres unmarked) [B165, N-benzyl-1-cyclohexylpentan-2-amine], the MIC in the experiment with H37RvMA (WT H37Rv MTB) was > 150 µM; with E. coli (setting [1]), 60 µM (≈ 15.6 µg/mL); in the experiment with E. coli (setting [2]) it was > 300 µM; in the experiment with A. baumannii (setting [3]), > 150 µM.

For the compound `CCC(CC1CCCCC1)NCc1ccccc1F` (centres unmarked) [B166, 1-cyclohexyl-N-(2-fluorobenzyl)butan-2-amine hydrochloride], the MIC in the experiment on H37RvMA (WT H37Rv MTB) is > 150 µM; in the experiment on E. coli (setting [1]), 250 µM; in the experiment with E. coli (setting [2]) it was > 300 µM; in the experiment with A. baumannii (setting [3]) it was 300 µM.

With `c1ccc(CNC(CC2CCCCC2)C2CC2)cc1` (centres unmarked) [B167, N-benzyl-2-cyclohexyl-1-cyclopropylethanamine], the MIC with H37RvMA (WT H37Rv MTB) is > 150 µM; in the experiment on E. coli (setting [1]), > 300 µM; in the experiment with E. coli (setting [2]), > 300 µM; with A. baumannii (setting [3]), > 300 µM.

For `OCC(CC1CCCCC1)NCc1ccccc1` (centres unmarked) [B168, 2-(benzylamino)-3-cyclohexylpropan-1-ol], the MIC in the experiment with H37RvMA was > 150 µM; with E. coli (setting [1]) it was 182 µM (≈ 45 µg/mL); in the experiment on E. coli (setting [2]), 170 µM (≈ 42.1 µg/mL); in the experiment on A. baumannii (setting [4]), 410 µM (≈ 101 µg/mL).

`c1ccc(CNC(CC2CCCCC2)c2ccccc2)cc1` (centres unmarked) [B169, N-benzyl-2-cyclohexyl-1-phenylethanamine hydrochloride]: the MIC in the experiment on H37RvMA (WT H37Rv MTB) was > 150 µM; in the experiment on E. coli (setting [1]) it was 74 µM; in the experiment with E. coli (setting [2]), > 300 µM; with A. baumannii (setting [3]) it was > 300 µM.

`C[C@H](CC1=CCCCC1)NCc1ccccc1` [B170]: the MIC was > 150 µM with H37RvMA, > 300 µM in the experiment on E. coli (setting [1]), > 300 µM in the experiment on E. coli (setting [2]) and > 300 µM in the experiment on A. baumannii (setting [4]).

`C[C@@H](CC1=CCCCC1)NCc1ccccc1` [B171]: the MIC in the experiment with H37RvMA was > 150 µM; in the experiment with E. coli (setting [1]) it was 19 µM (≈ 4.36 µg/mL); with E. coli (setting [2]), 41 µM (≈ 9.4 µg/mL); with A. baumannii (setting [4]), 110 µM (≈ 25.2 µg/mL).

For `OC(CNCc1ccccc1)C1CCCCC1` (centres unmarked) [B172], the MIC was > 150 µM with H37RvMA, 96 µM (≈ 22.4 µg/mL) in the experiment on E. coli (setting [1]), 170 µM (≈ 39.7 µg/mL) in the experiment on E. coli (setting [2]) and > 300 µM with A. baumannii (setting [4]).

As for `OC[C@@H](Cc1ccccc1)NCc1ccccc1` [B173], the MIC is > 150 µM with H37RvMA (WT H37Rv MTB), > 300 µM with E. coli (setting [1]), > 300 µM in the experiment with E. coli (setting [2]) and > 300 µM in the experiment with A. baumannii (setting [3]).

As for `OC[C@H](Cc1ccccc1)NCc1ccccc1` [B174], the MIC in the experiment on H37RvMA (WT H37Rv MTB) is > 150 µM; in the experiment on E. coli (setting [1]) it was > 300 µM; with E. coli (setting [2]), > 300 µM; in the experiment with A. baumannii (setting [3]), > 300 µM.

As for `c1ccc(CNC2CCC2c2ccccc2)cc1` (centres unmarked) [B176], the MIC in the experiment with H37RvMA (WT H37Rv MTB) was > 150 µM; in the experiment on E. coli (setting [1]), > 300 µM; with E. coli (setting [2]), > 300 µM; in the experiment with A. baumannii (setting [3]), > 300 µM.

Turning to `FC(F)(F)C(CC1CCCCC1)NCc1ccccc1` (centres unmarked) [B177], the MIC with H37RvMA (WT H37Rv MTB) was > 150 µM; in the experiment on E. coli (setting [1]), > 300 µM; in the experiment with E. coli (setting [2]), > 300 µM; in the experiment on A. baumannii (setting [3]) it was > 300 µM.

For the compound `CC1CCCCC1CCNCc1ccccc1` (centres unmarked) [B178], the MIC in the experiment on H37RvMA (WT H37Rv MTB) was 55 µM (≈ 12.7 µg/mL); in the experiment with E. coli (setting [1]), > 300 µM; with E. coli (setting [2]), > 300 µM; with A. baumannii (setting [3]), > 300 µM.

`CC1CCCC(CCNCc2ccccc2)C1` (centres unmarked) [B179]: the MIC was 150 µM (≈ 34.7 µg/mL) in the experiment with H37RvMA (WT H37Rv MTB), 230 µM (≈ 53.2 µg/mL) with E. coli (setting [1]), > 300 µM in the experiment with E. coli (setting [2]) and > 300 µM in the experiment on A. baumannii (setting [3]).

Regarding `O=C(O)C(CC1CCCCC1)NCc1ccccc1` (centres unmarked) [B180], the MIC in the experiment with H37RvMA (WT H37Rv MTB) is > 150 µM; in the experiment on E. coli (setting [1]), > 300 µM; with E. coli (setting [2]), > 300 µM; in the experiment on A. baumannii (setting [3]) it was > 300 µM.

Turning to `c1ccc(CCNCc2ccccc2)cc1` [B181], the MIC in the experiment with H37RvMA is > 150 µM; in the experiment with E. coli (setting [1]), > 300 µM; in the experiment with E. coli (setting [2]), > 300 µM; in the experiment with A. baumannii (setting [4]) it was > 300 µM.

For the compound `c1ccc(CNCCC23CCCCC2C3)cc1` (centres unmarked) [B182], the MIC in the experiment with H37RvMA (WT H37Rv MTB) was 91 µM (≈ 20.9 µg/mL); with E. coli (setting [1]), > 300 µM; with E. coli (setting [2]) it was > 300 µM; in the experiment with A. baumannii (setting [3]), > 300 µM.

As for `FC1(F)C2CCCCC21CCNCc1ccccc1` (centres unmarked) [B183], the MIC was > 150 µM in the experiment with H37RvMA (WT H37Rv MTB), > 300 µM with E. coli (setting [1]), > 300 µM in the experiment with E. coli (setting [2]) and > 300 µM in the experiment with A. baumannii (setting [3]).

`O=C(O)C1CCCCC1CCNCc1ccccc1` (centres unmarked) [B184]: the MIC in the experiment with H37RvMA (WT H37Rv MTB) was > 150 µM; with E. coli (setting [1]) it was > 300 µM; with E. coli (setting [2]), > 300 µM; in the experiment on A. baumannii (setting [3]) it was > 300 µM.

As to `COC(=O)C1CCCCC1CCNCc1ccccc1` (centres unmarked) [B185], the MIC in the experiment on H37RvMA (WT H37Rv MTB) is > 150 µM; in the experiment on E. coli (setting [1]), > 300 µM; in the experiment with E. coli (setting [2]) it was > 300 µM; with A. baumannii (setting [3]), > 300 µM.

Take `OC1(CCNCc2ccccc2)CCCCC1` [B187]: the MIC in the experiment on H37RvMA (WT H37Rv MTB) was > 150 µM; with E. coli (setting [1]) it was > 300 µM; with E. coli (setting [2]) it was > 300 µM; in the experiment with A. baumannii (setting [3]) it was > 300 µM.

For `OC1(CCNCc2ccccc2)CCCCC1Cl` (centres unmarked) [B188], the MIC in the experiment with H37RvMA (WT H37Rv MTB) was > 150 µM; in the experiment on E. coli (setting [1]), > 300 µM; in the experiment with E. coli (setting [2]) it was > 300 µM; in the experiment with A. baumannii (setting [3]), > 300 µM.
